Reference: paper PMC8175350, “Drug repurposing screens identify chemical entities for the development of COVID-19 interventions” (Nature Communications, 2021)
Where a name gives a salt, the structure may show the parent alone. Read-outs that look alike come from different tables or passages of the source.

Assays:
HepG2 [1] = details: human
HEK293T [2] = details: human
SARS-CoV-2 [3] = assay: microbe, parasite or virus in culture; format: cell-based; details: for Emax: Severe acute respiratory syndrome coronavirus 2, Calu-3, 48 h, read-out: Calu-3 CoV-2 Sinf Average; for EC50: read-out: Calu-3 CoV-2 EC50 GeoMean
Calu-3 cells [4] = details: for Calu-3 uninfected cytotoxicity Sinf Average: human
[5] = Uninfected HeLa-ACE2 24 h live/dead cytotoxicity counter screen; format: cell-based, human; details: human, uninfected HeLa-ACE2 cells; read-out: HeLa-ACE2 uninfected cytotoxicity CC50 GeoMean
HeLa-ACE2 cells [6] = assay: as above; format: cell-based, human
HeLa-ACE2 cells [7] = assay: Total cell count in the HeLa-ACE2 TOA (time of addition) assay; format: cell-based, human; details: for EC50: Homo sapiens, HeLa-ACE2, read-out: HeLa-ACE2 TOA cell count EC50 GeoMean
SARS-CoV-2 [8] = assay: microbe, parasite or virus in culture; format: cell-based; details: for Emax: Severe acute respiratory syndrome coronavirus 2, HeLa-ACE2, 10 h, read-out: HeLa-ACE2 TOA CoV-2 Sinf Average; for EC50: read-out: HeLa-ACE2 TOA CoV-2 EC50 GeoMean
in vitro = details: human, Calu-3 uninfected cytotoxicity CC50 GeoMean
Calu-3 cells [9] = assay: cells; details: Homo sapiens; for Emax: Calu-3, 48 h, read-out: Calu-3 cell count Sinf Average; for EC50: Calu-3, read-out: Calu-3 cell count EC50 GeoMean
HeLa-ACE2 cells [10] = assay: cells; details: Homo sapiens; for EC50: HeLa-ACE2, read-out: HeLa-ACE2 cell count EC50 GeoMean; for Emax: HeLa-ACE2, 24 h, read-out: HeLa-ACE2 cell count Sinf Average
SARS-CoV-2 [11] = assay: microbe, parasite or virus in culture; format: cell-based; details: for Emax: Severe acute respiratory syndrome coronavirus 2, HeLa-ACE2, 24 h, read-out: HeLa-ACE2 CoV-2 Sinf Average; for EC50: read-out: HeLa-ACE2 CoV-2 EC50 GeoMean
SARS-CoV-2 [12] = format: cell-based; details: combination with remdesivir
[13] = HEK293T 72 h CellTiter-Glo cytotoxicity; details: human, HEK293T cells
HEK293T [14] = assay: HEK293T 72 h CellTiter-Glo cytotoxicity; details: 72 h
HepG2 [15] = assay: HepG2 72 h CellTiter-Glo cytotoxicity; details: 72 h
[16] = HepG2 72 h CellTiter-Glo cytotoxicity; details: human, HepG2 cells
[17] = Uninfected Calu-3 48 h Cell-Titer Glo cytotoxicity counter screen; details: human, uninfected Calu-3 cells, Calu-3 uninfected cytotoxicity CC50 GeoMean
Calu-3 cells [18] = assay: as above; details: human, uninfected Calu-3 cells, 48 h
[19] = Severe acute respiratory syndrome coronavirus 2, Calu-3, detail column
[20] = human, uninfected HeLa-ACE2 cells, 24 h
[21] = Severe acute respiratory syndrome coronavirus 2, HeLa-ACE2, detail column
[22] = selectivity index, uninfected HeLa-ACE2 CC50 / SARS-CoV-2 EC50
[23] = Severe acute respiratory syndrome coronavirus 2, Calu-3
[24] = selectivity index, uninfected Calu-3 CC50 / SARS-CoV-2 EC50
[25] = Severe acute respiratory syndrome coronavirus 2, HeLa-ACE2

| SMILES | HepG2 72-hour cytotoxicity Sinf Average (HepG2 [1]; 72 h) | HEK293T 72-hour cytotoxicty Sinf Average (HEK293T [2]; 72 h) | Emax (SARS-CoV-2 [3]) | EC50 (SARS-CoV-2 [3]; [19]) | uninfected Calu-3 CC50 (Calu-3 cells [4]) | Calu-3 uninfected cytotoxicity Sinf Average (Calu-3 cells [4]; 48 h) | CC50 at 24 h [5] | HeLa-ACE2 uninfected cytotoxicity Sinf Average (HeLa-ACE2 cells [6]; [20]) | EC50 (HeLa-ACE2 cells [7]) | Emax (SARS-CoV-2 [8]) | CC50 at 48 h (in vitro) | Emax (Calu-3 cells [9]) | EC50 (Calu-3 cells [9]) | EC50 (HeLa-ACE2 cells [10]) | Emax (SARS-CoV-2 [11]) | EC50 (SARS-CoV-2 [11]; [21]) | HeLa-ACE2 SI (SARS-CoV-2 [11]; [22]) | TOA:HeLa-ACE2 EC50 Ratio (SARS-CoV-2 [8]) | EC50 (SARS-CoV-2 [8]; [25]) | Emax (HeLa-ACE2 cells [10]) | further results |
| --- | --- | --- | --- | --- | --- | --- | --- | --- | --- | --- | --- | --- | --- | --- | --- | --- | --- | --- | --- | --- | --- |
| Cc1cccc(/C=N/Nc2cc(N3CCOCC3)n3nc(-c4ccncc4)cc3n2)c1 [APY0201] | -100% | -96% | 97% | > 9.39 µM | > 26.965 ×÷ 1.196 (n=6) μM | -100% | > 39.4 µM | -100% | > 9.59 µM | 100% | > 27 µM | 100% | > 9.98 µM | > 9.59 µM | 96% | 0.014 µM | > 2853.95 | – | – | – | EC50 (SARS-CoV-2 [8]; [21]): > 9.59 µM |
| CCN(CC)CCCNc1ccnc2cc(Cl)ccc12 [AQ-13] | -100% | -100% | 100% | – | > 29.255 ×÷ 1.046 (n=4) μM | -100% | 25.9 µM | -100% | > 9.61 µM | 100% | > 29.3 µM | – | > 9.98 µM | > 9.6 µM | 101% | 0.8 µM | 32.34 | 12.002 | – | – | EC50 (SARS-CoV-2 [3]; [23]): > 9.98 µM; EC50 (SARS-CoV-2 [8]; [21]): > 9.61 µM; HeLa-ACE2 synergy score with remdesivi (SARS-CoV-2 [12]): -1.765 δ |
| Nc1nc(Nc2ccc3c(c2)CC[C@@H](N2CCCC2)CC3)nn1-c1cc2c(nn1)-c1ccccc1CCC2 [BGB324] | -105% | -102% | 100% | 6.94 µM | 19.024 ×÷ 1.18 (n=3) μM | -100% | 15.7 µM | -101% | > 9.59 µM | 100% | 19 µM | 100% | 6.27 µM | > 9.15 µM | 98% | 1.2 µM | 13.05 | 7.782 | > 9.35 µM | 100% | Calu-3 SI (SARS-CoV-2 [3]; [24]): 2.74; HeLa-ACE2 synergy score with remdesivi (SARS-CoV-2 [12]): 7.223 δ |
| Cc1c(-c2ccc(O)cc2)n(Cc2ccc(OCCN3CCCCCC3)cc2)c2ccc(O)cc12 [Bazedoxifene acetate] | – | – | 94% | – | – | – | > 20.7 µM | – | > 9.59 µM | 100% | – | – | > 9.98 µM | > 8.59 µM | 100% | – | – | – | > 4.47 µM | 100% | EC50 (SARS-CoV-2 [3]; [23]): > 7.73 µM; CC50 at 72 h [13]: 9.19 µM; HEK293T 72-hour cytotoxicty Sinf Average (HEK293T [14]): -106%; HepG2 72-hour cytotoxicity Sinf Average (HepG2 [15]): -99%; CC50 at 72 h [16]: 3.21 µM; CC50 at 48 h [17]: 10.6 µM; EC50 (SARS-CoV-2 [11]; [25]): 2.89 µM |
| COc1cc(-n2cnc3cc(-c4ccc(Cl)cc4)sc3c2=O)ccc1OCCN1CCCC1 [GW-803430] | – | – | 100% | – | – | – | 18.9 µM | – | > 9.59 µM | 100% | – | 100% | > 9.98 µM | > 7.88 µM | 100% | – | – | 5.656 | – | 100% | Calu-3 SI (SARS-CoV-2 [3]): 0.88; EC50 (SARS-CoV-2 [3]; [23]): 6.57 µM; HEK293T 72-hour cytotoxicty Sinf Average (HEK293T [14]): -101%; HepG2 72-hour cytotoxicity Sinf Average (HepG2 [15]): -100%; Calu-3 uninfected cytotoxicity Sinf Average (Calu-3 cells [4]): -116%; HeLa-ACE2 uninfected cytotoxicity Sinf Average (HeLa-ACE2 cells [6]): -100%; EC50 (SARS-CoV-2 [8]; [21]): > 9.59 µM; CC50 (in vitro): 5.81 µM; HeLa-ACE2 SI (SARS-CoV-2 [11]): 11.16; EC50 (SARS-CoV-2 [11]; [25]): 1.7 µM |
| CCCCC1CCc2cc(O)cc3c(CCN4CCN(c5cc(C)ccn5)CC4)c(C)n1c23 (stereo not drawn) [KC 11404] | -101% | -100% | 100% | 8.02 µM | 12.778 ×÷ 1.123 (n=3) μM | -100% | > 20.9 µM | -100% | > 9.59 µM | 100% | 12.8 µM | – | > 9.98 µM | > 9.59 µM | 100% | 2.5 µM | > 8.39 | 0.864 | 2.16 µM | 100% | Calu-3 SI (SARS-CoV-2 [3]; [24]): 1.59; HeLa-ACE2 TOA cell count Sinf Average (HeLa-ACE2 cells [7]): 100%; HeLa-ACE2 synergy score with remdesivi (SARS-CoV-2 [12]): -2.817 δ |
| CCCCN1CC[C@H](c2ccc(N(C)C)cc2)[C@@H](COc2ccc(C(F)(F)F)cc2)C1 [NNC 090026] | -100% | -100% | 100% | > 8.31 µM | > 23.525 ×÷ 1.612 (n=4) μM | -100% | > 15.4 µM | -100% | > 9.61 µM | 100% | > 23.5 µM | – | > 9.98 µM | > 8.97 µM | 94% | 2.75 µM | > 5.59 | 1.737 | 4.77 µM | 96% | Calu-3 SI (SARS-CoV-2 [3]; [24]): > 2.83 |
| OC(CNCC(O)C1CCc2cc(F)ccc2O1)C1CCc2cc(F)ccc2O1 (stereo not drawn) [Nebivolol HCl] | – | – | 100% | > 8.69 µM | – | – | > 11.1 µM | -103% | > 4.56 µM | 98% | – | – | > 9.98 µM | > 9.12 µM | 99% | 2.96 µM | > 3.75 | 0.619 | 1.83 µM | 100% | Calu-3 SI (SARS-CoV-2 [3]; [24]): < 1.57; CC50 at 72 h [13]: 5.57 µM; HEK293T 72-hour cytotoxicty Sinf Average (HEK293T [14]): -106%; HepG2 72-hour cytotoxicity Sinf Average (HepG2 [15]): -99%; CC50 at 72 h [16]: 7.62 µM; CC50 at 48 h [17]: 13.6 µM; Calu-3 uninfected cytotoxicity Sinf Average (Calu-3 cells [18]): -100%; HeLa-ACE2 TOA cell count Sinf Average (HeLa-ACE2 cells [7]): 70% |
| CC(C)Oc1ccc(-c2nc(-c3cccc4c3CC[C@@H]4NCCO)no2)cc1C#N [Ozanimod] | -103% | -100% | 97% | > 7.74 µM | 13.319 ×÷ 1.347 (n=3) μM | -100% | > 14.7 µM | -101% | > 9.59 µM | 100% | 13.3 µM | 100% | > 9.98 µM | > 8.74 µM | 101% | 2.63 µM | > 5.60 | 2.748 | > 7.24 µM | 100% | Calu-3 SI (SARS-CoV-2 [3]; [24]): < 1.72; HeLa-ACE2 synergy score with remdesivi (SARS-CoV-2 [12]): -4.622 δ |
| COc1cc(C[C@H]2c3cc(OC)c(OC)cc3CCN2C)c(Oc2cc3c(cc2OC)-c2c(OC)c(OC)cc4c2[C@H](C3)N(C)CC4)cc1OC [Thalicarpine] | – | – | – | – | – | – | > 26.6 µM | – | > 9.61 µM | 100% | – | -100% | > 9.98 µM | > 9.6 µM | 96% | – | – | 16.501 | – | – | HepG2 72-hour cytotoxicity Sinf Average (HepG2 [1]): -105%; HEK293T 72-hour cytotoxicty Sinf Average (HEK293T [2]): -105%; EC50 (SARS-CoV-2 [3]; [23]): > 9.98 µM; Calu-3 uninfected cytotoxicity Sinf Average (Calu-3 cells [4]): -92%; HeLa-ACE2 uninfected cytotoxicity Sinf Average (HeLa-ACE2 cells [6]): -99%; EC50 (SARS-CoV-2 [8]; [21]): > 9.61 µM; CC50 (in vitro): > 15.3 µM; HeLa-ACE2 SI (SARS-CoV-2 [11]): > 45.67; EC50 (SARS-CoV-2 [11]; [25]): 0.582 µM |
